From article PMC5429603, “Discovery and characterization of verinurad, a potent and specific inhibitor of URAT1 for the treatment of hyperuricemia and gout” (Scientific Reports, 2017)
Where a chain is given by its changes, count along the chain named.

Key:
[1] = target: T1, human URAT1 h-M22V (Homo sapiens, UniProt Q96S37, M22V); assay: URAT1 activity assay, h-M22V; format: cell-based; conditions: TM1 point mutant, read-out: Verinurad affinity (IC50)
T1 construct: expressed in transfected cells; host or cells: HEK-293T
T1 sequence (Q96S37 whole entry M22V): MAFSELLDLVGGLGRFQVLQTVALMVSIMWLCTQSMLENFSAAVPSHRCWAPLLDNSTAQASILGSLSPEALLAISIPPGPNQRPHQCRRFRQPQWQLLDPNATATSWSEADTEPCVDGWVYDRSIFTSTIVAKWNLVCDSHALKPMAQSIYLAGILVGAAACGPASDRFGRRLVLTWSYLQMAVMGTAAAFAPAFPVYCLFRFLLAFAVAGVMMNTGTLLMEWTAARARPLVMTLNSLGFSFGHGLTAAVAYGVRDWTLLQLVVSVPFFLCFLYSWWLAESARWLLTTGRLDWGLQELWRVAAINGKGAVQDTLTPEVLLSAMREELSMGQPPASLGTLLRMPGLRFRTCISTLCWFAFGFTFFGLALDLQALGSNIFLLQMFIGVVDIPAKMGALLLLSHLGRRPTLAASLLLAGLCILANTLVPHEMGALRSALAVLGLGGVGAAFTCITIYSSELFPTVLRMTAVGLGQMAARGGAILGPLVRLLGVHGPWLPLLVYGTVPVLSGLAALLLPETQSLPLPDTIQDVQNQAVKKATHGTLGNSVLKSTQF
Excerpt: (§1) Human URAT1 (GenBank BC053348.1, Homo sapiens SLC22A12), rat URAT1 (NCBI NM_001034943.1, Rattus norvegicus Slc22a12) and human OAT4 (NCBI NM_018484.2, Homo sapiens SLC22A11) genes were purchased from Origene Technologies, Inc. and subcloned into pCMV6/neo using NotI. Where indicated, controls transfections used pCMV6/neo. Mutants were produced by site-directed mutagenesis using the QuikChange Lightning Multi Site-Directed Mutagenesis Kit (Agilent Technologies). […] Mutagenic primer sequences are provided in ref. [15] and mutagenic primer sequences for previously unreported mutants shown in Supplementary Table 1. All constructs used in this study were untagged. Human OAT1 was purchased from Fisher Scientific (catalog # MHS1010–7508183 in pSPORT6, NCBI NM_153276.2, Homo sapiens SLC22A6).
HEK-293T cells were maintained in DMEM/high glucose/L-glutamine/HEPES supplemented with 1 mM sodium pyruvate (Life Technologies) and 10% FBS (PAA Laboratories) at 37 °C in 5% CO2. […]
(§2) URAT1 and OAT4 activity assays were performed in assay buffer consisting of 25 mM MES pH 5.5 (from a 1 M MES solution [Sigma] adjusted to pH 5.5 with sodium hydroxide), 125 mM sodium gluconate, 4.8 mM potassium gluconate, 1.2 mM monobasic potassium phosphate, 1.2 mM magnesium sulfate, 1.3 mM calcium gluconate and 5.6 mM glucose. […] Each treatment was measured in triplicate.

[2] = target: T2, human URAT1 (Homo sapiens, UniProt Q96S37); assay: URAT1 binding assay with 3H-verinurad, human URAT1 membranes
T2 sequence (Q96S37 1-553): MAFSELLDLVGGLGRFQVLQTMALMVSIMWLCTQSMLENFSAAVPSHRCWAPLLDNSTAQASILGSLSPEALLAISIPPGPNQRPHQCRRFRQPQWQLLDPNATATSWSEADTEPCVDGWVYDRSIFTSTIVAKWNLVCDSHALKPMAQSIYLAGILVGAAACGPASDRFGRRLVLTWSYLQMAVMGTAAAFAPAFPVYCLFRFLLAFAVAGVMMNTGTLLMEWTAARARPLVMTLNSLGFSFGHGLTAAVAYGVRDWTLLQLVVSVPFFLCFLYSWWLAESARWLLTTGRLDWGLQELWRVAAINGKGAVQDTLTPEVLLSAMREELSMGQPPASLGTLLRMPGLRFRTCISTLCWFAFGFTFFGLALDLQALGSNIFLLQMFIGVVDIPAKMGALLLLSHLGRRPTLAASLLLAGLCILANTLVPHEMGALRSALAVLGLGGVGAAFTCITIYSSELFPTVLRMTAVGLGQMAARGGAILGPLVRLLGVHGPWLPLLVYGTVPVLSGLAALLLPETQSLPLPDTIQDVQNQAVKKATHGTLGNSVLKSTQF
Description: Membranes were prepared from cells transfected on the previous day with URAT1 expression constructs. Cells (5–10 × 10^8) were harvested in 1 ml ice-cold binding buffer (25 mM HEPES pH 7.3, 125 mM sodium gluconate) containing complete, EDTA-free protease inhibitor cocktail (Sigma). Cells were lysed with 100 strokes in a 2 ml dounce homogenizer using a tight-fitting “B” stem. Lysates were transferred to 1.5 mL Eppendorf tubes and centrifuged at 250 rcf for 5 minutes at 2 °C, and supernatants were transferred to fresh tubes and centrifuged again at 18,000 rcf for 20 minutes at 2 °C. The pellets (membrane fractions) were resuspended in 1 ml of ice-cold binding buffer containing protease inhibitors and frozen at −80 °C. Protein was measured using the Bio-Rad protein assay dye reagent concentrate.
Samples were then rapidly filtered through 25 mm glass fiber/1.2 µM PES 96-well filter plates (Corning FiltrEX 3510), and washed once with 200 µl ice-cold binding buffer. The plates were then subjected to scintillation counting. All samples were assayed in triplicate.
GraphPad Prism software was used for non-linear regression and statistical analyses. […] For kinetic measurements (K m and B max values), the “one site – specific binding” equation was used, after subtracting transport or binding measurements from control transfected cells. Statistical significance was assessed using Student’s unpaired t-tests.

[3] = target: T3, rat URAT1 r-N35S/Y365F/M481I (Rattus norvegicus, UniProt Q3ZAV1, M481I/N35S/Y365F); assay: URAT1 activity assay, r-N35S/Y365F/M481I; format: cell-based
T3 construct: expressed in transfected cells; host or cells: HEK-293T
T3 sequence (Q3ZAV1 1-553 N35S/Y365F/M481I): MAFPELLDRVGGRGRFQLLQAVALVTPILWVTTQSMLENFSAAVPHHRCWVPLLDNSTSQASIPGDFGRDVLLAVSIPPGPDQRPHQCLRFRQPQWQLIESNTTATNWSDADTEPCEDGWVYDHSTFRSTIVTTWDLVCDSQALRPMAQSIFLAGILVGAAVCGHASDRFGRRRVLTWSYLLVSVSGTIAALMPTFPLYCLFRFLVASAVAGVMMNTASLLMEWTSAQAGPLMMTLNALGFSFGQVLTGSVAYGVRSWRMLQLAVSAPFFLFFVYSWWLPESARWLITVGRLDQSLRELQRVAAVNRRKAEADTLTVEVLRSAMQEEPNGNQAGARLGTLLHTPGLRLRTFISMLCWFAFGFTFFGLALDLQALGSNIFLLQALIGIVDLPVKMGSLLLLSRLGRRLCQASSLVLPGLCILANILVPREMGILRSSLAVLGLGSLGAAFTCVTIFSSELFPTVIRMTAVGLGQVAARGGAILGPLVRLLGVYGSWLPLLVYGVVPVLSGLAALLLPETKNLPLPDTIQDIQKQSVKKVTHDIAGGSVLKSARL
Excerpt: as §1
(§3) HEK-293T cells were maintained in DMEM/high glucose/L-glutamine/HEPES supplemented with 1 mM sodium pyruvate (Life Technologies) and 10% FBS (PAA Laboratories) at 37 °C in 5% CO2. To express URAT1, OAT4 or OAT1, plasmids were reverse transfected into HEK-293T cells. DNA (10 µg) was mixed with 30 µl of DreamFect Gold (Boca Scientific) in 2 ml OptiMem (Life Technologies). After 20 minutes, 18 ml of media containing 2 × 10^7 cells in suspension was added and mixed, and 200 µl per well were plated onto white clear-bottomed poly-D-lysine coated 96-well plates (BD Biosciences). The cells were assayed the following day.
as §2, with “glucose. URAT1 inhibitors were serially diluted into assay buffer and added to the cells for 5 minutes prior to addition of substrate. URAT1-expressing cells were incubated with 100 µM ^14C-uric acid for 10 minutes and OAT4-expressing cells were incubated with 20 µM carboxyfluorescein (Life Technologies, Inc.) for 5 minutes.” for “glucose.”

[4] = target: T4, human URAT1 h-F449Y (Homo sapiens, UniProt Q96S37, F449Y); assay: URAT1 activity assay, h-F449Y; format: cell-based
T4 construct: expressed in transfected cells; host or cells: HEK-293T
T4 sequence (Q96S37 1-553 F449Y): T2 sequence (Q96S37 1-553) with F449Y
Excerpt: as §1, §3
URAT1 and OAT4 activity assays were performed in assay buffer consisting of 25 mM MES pH 5.5 (from a 1 M MES solution [Sigma] adjusted to pH 5.5 with sodium hydroxide), 125 mM sodium gluconate, 4.8 mM potassium gluconate, 1.2 mM monobasic potassium phosphate, 1.2 mM magnesium sulfate, 1.3 mM calcium gluconate and 5.6 mM glucose. URAT1 inhibitors were serially diluted into assay buffer and added to the cells for 5 minutes prior to addition of substrate. URAT1-expressing cells were incubated with 100 µM ^14C-uric acid for 10 minutes and OAT4-expressing cells were incubated with 20 µM carboxyfluorescein (Life Technologies, Inc.) for 5 minutes. Cells were then washed three times in 25 mM MES pH 5.5/125 mM sodium gluconate, and solubilized in Ultima Gold (Perkin Elmer) prior to liquid scintillation counting. Each treatment was measured in triplicate.

- IC50 [1]: 29 ± 13 nM
- IC50 [2]: 7.8 nM
- Ki [2]: 6.9 nM
- mode of inhibition of 3H-verinurad binding ([2]; human URAT1 membranes): competitive inhibition
- fold higher affinity compared to rat URAT1 ([3]; r-N35S/Y365F/M481I): ~300 fold
- fold lower affinity compared to human URAT1 ([3]; r-N35S/Y365F/M481I): 6 fold
- IC50 ([3]; r-N35S/Y365F/M481I triple point mutant): 140 nM
- fold reduced affinity compared to human URAT1 ([4]; h-F449Y): the same affinity
- IC50 ([4]; h-F449Y binding site point mutant): 25 nM
SMILES: CC(C)(Sc1ccncc1-c1ccc(C#N)c2ccccc12)C(=O)O [Verinurad, 2-((3-(4-cyanonaphthalen-1-yl)pyrindin-4-yl)thio)-2-methylpropanoic acid]
